Results published in the supplement of paper PMC11451515.

Tests used:
Details in all cases: 48 h
NOMO1 [1] = experiment: cell viability relative to DMSO control; higher = less cytotoxic
In short: (§1)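 Leukemia cells (NOMO1 or SEM, 500 cells/well; P12-Ichikawa, 1000 cells/well) were seeded in 5 μl in 1536-well plates after at least four passages of adaptation to each medium. They received library compounds in DMSO by pin dosing, 11 threefold points from 47 μM to 0.79 nM. Luminescence with CellTiter-Glo One was read after 48 h at 37°C. Viability is stated per plate relative to DMSO wells, with cell-free wells as background.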

P12-Ichikawa [2] = experiment: as above
In short: as §1

SEM cells [3] = experiment: as above
In short: as §1

NOMO1 [4] = experiment: AUC of viability dose-response curve (% viability x log10 dose units); higher = less sensitive
In short: (§2)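 Medium-adapted leukemia cells in 1536-well plates, at 500 or 1000 cells/well, were incubated for 48 h at 37°C with library compounds in DMSO at 11 threefold doses from 47 μM to 0.79 nM. CellTiter-Glo One luminescence normalised per plate to DMSO and cell-free wells was fitted with a four-parameter log-logistic model over log10 doses. Area under the curve was integrated from this fit by trapezoidal rule, with curves beyond full viability scaled and failed quality-control curves removed.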

P12-Ichikawa [5] = experiment: as above
In short: as §2

SEM cells [6] = experiment: as above
In short: as §2

Cc1ccc(NC(=O)C2(c3ccc4c(c3)OC(F)(F)O4)CC2)nc1-c1cccc(C(=O)O)c1
cell viability [%]
Details	NOMO1 [1]	P12-Ichikawa [2]	SEM cells [3]
HPLM + 10% dialyzed FBS, 0.000781 µM	107	101	106
HPLM + 10% dialyzed FBS, 0.00234 µM	122	111	87.4
HPLM + 10% dialyzed FBS, 0.00702 µM	95.4	101	109
HPLM + 10% dialyzed FBS, 0.0211 µM	102	108	111
HPLM + 10% dialyzed FBS, 0.0632 µM	98.8	93.4	93.5
HPLM + 10% dialyzed FBS, 0.19 µM	53.4	58.4	13.7
HPLM + 10% dialyzed FBS, 0.569 µM	19	29.4	16.4
HPLM + 10% dialyzed FBS, 1.71 µM	9.04	19.5	16.7
HPLM + 10% dialyzed FBS, 5.12 µM	7.86	17.2	9.88
HPLM + 10% dialyzed FBS, 15.4 µM	6.36	10.9	9.04
HPLM + 10% dialyzed FBS, 46.1 µM	4.68	6.66	6.17
RPMI 5 mM glucose + 10% FBS, 0.000781 µM	97.6	106	87.2
RPMI 5 mM glucose + 10% FBS, 0.00234 µM	93.2	98.6	86.6
RPMI 5 mM glucose + 10% FBS, 0.00702 µM	99.6	95.5	91.6
RPMI 5 mM glucose + 10% FBS, 0.0211 µM	96.9	101	91.5
RPMI 5 mM glucose + 10% FBS, 0.0632 µM	91.6	85.3	62.6
RPMI 5 mM glucose + 10% FBS, 0.19 µM	43.4	42.2	11.1
RPMI 5 mM glucose + 10% FBS, 0.569 µM	17.4	18.7	10.5
RPMI 5 mM glucose + 10% FBS, 1.71 µM	10.2	16.1	10.5
RPMI 5 mM glucose + 10% FBS, 5.12 µM	7.42	11.1	8.17
RPMI 5 mM glucose + 10% FBS, 15.4 µM	6.77	9.88	7.53
RPMI 5 mM glucose + 10% FBS, 46.1 µM	4.07	6.85	5.47
RPMI 5 mM glucose + 10% dialyzed FBS, 0.000781 µM	99.8	102	97.9
RPMI 5 mM glucose + 10% dialyzed FBS, 0.00234 µM	99.8	103	98.3
RPMI 5 mM glucose + 10% dialyzed FBS, 0.00702 µM	92.1	97	97.7
RPMI 5 mM glucose + 10% dialyzed FBS, 0.0211 µM	110	96.1	107
RPMI 5 mM glucose + 10% dialyzed FBS, 0.0632 µM	102	95.4	71.9
RPMI 5 mM glucose + 10% dialyzed FBS, 0.19 µM	56.8	44.5	14.9
RPMI 5 mM glucose + 10% dialyzed FBS, 0.569 µM	27	30.4	13.2
RPMI 5 mM glucose + 10% dialyzed FBS, 1.71 µM	11.4	20.8	16.6
RPMI 5 mM glucose + 10% dialyzed FBS, 5.12 µM	8.3	9.02	9.71
RPMI 5 mM glucose + 10% dialyzed FBS, 15.4 µM	7.38	8.13	8.66
RPMI 5 mM glucose + 10% dialyzed FBS, 46.1 µM	4.48	6.13	6.45

AUC of viability dose-response curve
Details	NOMO1 [4]	P12-Ichikawa [5]	SEM cells [6]
HPLM + 10% dialyzed FBS	252	268	241
RPMI 5 mM glucose + 10% FBS	246	253	202
RPMI 5 mM glucose + 10% dialyzed FBS	264	260	232

O=C(Nc1ccc(OC(F)(F)F)cc1)c1sccc1NCc1ccnc2ccccc12
cell viability [%]
Details	NOMO1 [1]	P12-Ichikawa [2]	SEM cells [3]
HPLM + 10% dialyzed FBS, 0.000781 µM	118	112	115
HPLM + 10% dialyzed FBS, 0.00234 µM	109	113	115
HPLM + 10% dialyzed FBS, 0.00702 µM	127	108	114
HPLM + 10% dialyzed FBS, 0.0211 µM	123	116	127
HPLM + 10% dialyzed FBS, 0.0632 µM	109	106	125
HPLM + 10% dialyzed FBS, 0.19 µM	110	112	115
HPLM + 10% dialyzed FBS, 0.569 µM	80.1	41.4	122
HPLM + 10% dialyzed FBS, 1.71 µM	43.1	12.8	82.3
HPLM + 10% dialyzed FBS, 5.12 µM	33.4	10.7	47.6
HPLM + 10% dialyzed FBS, 15.4 µM	33.8	8.54	24.8
HPLM + 10% dialyzed FBS, 46.1 µM	41.4	7.05	16.8
RPMI 5 mM glucose + 10% FBS, 0.000781 µM	118	106	–
RPMI 5 mM glucose + 10% FBS, 0.00234 µM	101	121	–
RPMI 5 mM glucose + 10% FBS, 0.00702 µM	117	118	–
RPMI 5 mM glucose + 10% FBS, 0.0211 µM	121	120	–
RPMI 5 mM glucose + 10% FBS, 0.0632 µM	112	118	–
RPMI 5 mM glucose + 10% FBS, 0.19 µM	105	113	–
RPMI 5 mM glucose + 10% FBS, 0.569 µM	108	102	–
RPMI 5 mM glucose + 10% FBS, 1.71 µM	96	72.6	–
RPMI 5 mM glucose + 10% FBS, 5.12 µM	52.8	25.9	–
RPMI 5 mM glucose + 10% FBS, 15.4 µM	22.6	10.3	–
RPMI 5 mM glucose + 10% FBS, 46.1 µM	25.3	9.62	–
RPMI 5 mM glucose + 10% dialyzed FBS, 0.000781 µM	105	109	122
RPMI 5 mM glucose + 10% dialyzed FBS, 0.00234 µM	106	119	117
RPMI 5 mM glucose + 10% dialyzed FBS, 0.00702 µM	113	111	127
RPMI 5 mM glucose + 10% dialyzed FBS, 0.0211 µM	117	120	135
RPMI 5 mM glucose + 10% dialyzed FBS, 0.0632 µM	107	108	125
RPMI 5 mM glucose + 10% dialyzed FBS, 0.19 µM	109	103	136
RPMI 5 mM glucose + 10% dialyzed FBS, 0.569 µM	116	110	130
RPMI 5 mM glucose + 10% dialyzed FBS, 1.71 µM	91.6	73.5	99.2
RPMI 5 mM glucose + 10% dialyzed FBS, 5.12 µM	57	33.1	87.8
RPMI 5 mM glucose + 10% dialyzed FBS, 15.4 µM	28	16.6	24.1
RPMI 5 mM glucose + 10% dialyzed FBS, 46.1 µM	36.1	16.1	15.8

AUC of viability dose-response curve
Details	NOMO1 [4]	P12-Ichikawa [5]	SEM cells [6]
HPLM + 10% dialyzed FBS	346	295	373
RPMI 5 mM glucose + 10% FBS	388	351	359
RPMI 5 mM glucose + 10% dialyzed FBS	395	363	395

Cc1[nH]c(/C=C2\C(=O)Nc3ccc([S+](=O)([O-])N(C)c4cccc(Cl)c4)cc32)c(C)c1C(=O)N1CCN(C)CC1
cell viability [%]
Details	NOMO1 [1]	P12-Ichikawa [2]	SEM cells [3]
HPLM + 10% dialyzed FBS, 0.000781 µM	114	118	101
HPLM + 10% dialyzed FBS, 0.00234 µM	131	130	120
HPLM + 10% dialyzed FBS, 0.00702 µM	123	124	113
HPLM + 10% dialyzed FBS, 0.0211 µM	103	119	125
HPLM + 10% dialyzed FBS, 0.0632 µM	119	126	129
HPLM + 10% dialyzed FBS, 0.19 µM	99.2	127	108
HPLM + 10% dialyzed FBS, 0.569 µM	115	119	114
HPLM + 10% dialyzed FBS, 1.71 µM	120	110	98.3
HPLM + 10% dialyzed FBS, 5.12 µM	109	111	71.5
HPLM + 10% dialyzed FBS, 15.4 µM	103	76.7	38.6
HPLM + 10% dialyzed FBS, 46.1 µM	10.1	0.631	2.39
RPMI 5 mM glucose + 10% FBS, 0.000781 µM	–	–	98.4
RPMI 5 mM glucose + 10% FBS, 0.00234 µM	–	–	111
RPMI 5 mM glucose + 10% FBS, 0.00702 µM	–	–	118
RPMI 5 mM glucose + 10% FBS, 0.0211 µM	–	–	107
RPMI 5 mM glucose + 10% FBS, 0.0632 µM	–	–	96.9
RPMI 5 mM glucose + 10% FBS, 0.19 µM	–	–	82
RPMI 5 mM glucose + 10% FBS, 0.569 µM	–	–	106
RPMI 5 mM glucose + 10% FBS, 1.71 µM	–	–	86.5
RPMI 5 mM glucose + 10% FBS, 5.12 µM	–	–	54.3
RPMI 5 mM glucose + 10% FBS, 15.4 µM	–	–	31.3
RPMI 5 mM glucose + 10% FBS, 46.1 µM	–	–	1.69

AUC of viability dose-response curve
Details	NOMO1 [4]	P12-Ichikawa [5]	SEM cells [6]
HPLM + 10% dialyzed FBS	451	436	393
RPMI 5 mM glucose + 10% FBS	462	430	379
RPMI 5 mM glucose + 10% dialyzed FBS	456	432	368
